For one assay, the system named is AsPC-1 (K-Ras G12D). Description: Potency assay: pERK. Format: cell-based. As to conditions: Homo sapiens. An excerpt:
The purpose of this assay was to measure the ability of test compounds to inhibit K-Ras in cells. Activated K-Ras induces increased phosphorylation of ERK at Threonine 202 and Tyrosine 204 (pERK). This procedure measures a decrease in cellular pERK in response to test compounds. The procedure described below in NCI-H358 cells is applicable to K-Ras G12C.
Note: This protocol may be executed substituting other cell lines to characterize inhibitors of other RAS variants, including, for example, AsPC-1 (K-Ras G12D), Capan-1 (K-Ras G12V), or NCI-H1355 (K-Ras G13C).
NCI-H358 cells were grown and maintained using media and procedures recommended by the ATCC. On the day prior to compound addition, cells were plated in 384-well cell culture plates (40 μl/well) and grown overnight in a 37° C., 5% CO2 incubator. Test compounds were prepared in 10, 3-fold dilutions in DMSO, with a high concentration of 10 mM. On the day of assay, 40 nL of test compound was added to each well of cell culture plate using an Echo550 liquid handler (LabCyte®). Concentrations of test compound were tested in duplicate. After compound addition, cells were incubated 4 hours at 37° C., 5% CO2. Following incubation, culture medium was removed and cells were washed once with phosphate buffered saline.
In some experiments, cellular pERK level was determined using the AlphaLISA SureFire Ultra p-ERK1/2 Assay Kit (PerkinElmer). Cells were lysed in 25 μL lysis buffer, with shaking at 600 RPM at room temperature. Lysate (10 μL) was transferred to a 384-well Opti-plate (PerkinElmer) and 5 μL acceptor mix was added. […] Signal was read on an Envision plate reader (PerkinElmer) using standard AlphaLISA settings. […] Signal was plotted vs. the decadal logarithm of compound concentration, and IC50 was determined by fitting a 4-parameter sigmoidal concentration response model.
In other experiments, cellular pERK was determined by In-Cell Western. […] Signal was plotted vs. the decadal logarithm of compound concentration, and IC50 was determined by fitting a 4-parameter sigmoidal concentration response model.

A further assay concerns SW1573. As to conditions: Canon et al., Nature 575:217-223 (2019); cited from earlier work.
Where [1] appears, read: ASPC1, read-out: IC50 in the pERK potency assay.

Like-named read-outs stand apart in the source and are kept apart here. Some results are limits rather than exact numbers.

In the case of `CCn1c(-c2cccnc2[C@H](C)OC)c2c3cc(ccc31)-c1cc(cc(C(F)F)c1)C[C@H](NC(=O)[C@H](C1CCCC1)N1CC[C@]3(CCN(C(=O)[C@@H]4N[C@@H]4C4CC4)C3)C1)C(=O)N1CCC[C@H](N1)C(=O)OCC(C)(C)C2` [Example A18], the half-maximal inhibitory concentration (IC50) in the assay with AsPC-1 (K-Ras G12D) (ASPC1, AsPC-1 (K-Ras G12D) cells, read-out: IC50 in the pERK potency assay) was over 8 µM. As to `CCn1c(-c2cccnc2[C@H](C)OC)c2c3cc(ccc31)-c1csc(n1)C[C@H](NC(=O)[C@H](C1CCCC1)N1CC[C@]3(CCN(C(=O)[C@@]4(C)CN4)C3)C1)C(=O)N1CCC[C@H](N1)C(=O)OCC(C)(C)C2` [Example A5], in the assay with AsPC-1 (K-Ras G12D) (setting [1]), the IC50 is over 8 µM. For `C=CC(=O)N1CCN(c2nc(=O)n(-c3c(C)ccnc3C(C)C)c3nc(-c4c(O)cccc4F)c(F)cc23)[C@@H](C)C1` [AMG510], the “sensitivity of cell line to RAS inhibitor” value with SW1573 is “insensitive”. Consider `CCn1c(-c2cccnc2[C@H](C)OC)c2c3cc(ccc31)-c1cc(cc(C(F)F)c1)C[C@H](NC(=O)[C@H](C(C)C)N1CC[C@]3(CCN(C(=O)[C@@H]4N[C@@H]4C4CC4)C3)C1)C(=O)N1CCC[C@H](N1)C(=O)OCC(C)(C)C2` [Example A17], for which the concentration for half-maximal inhibition (IC50) in the assay with AsPC-1 (K-Ras G12D) (setting [1]) is over 8 µM.

As a reminder, the IC50 is the concentration that gives 50% inhibition.

These data come from patent publication US12252497B2, “Ras inhibitors” (Revolution Medicines, Inc., priority 2021, dated 2025).
